# Test results published in patent US10239887B2, “Positive allosteric modulators of the muscarinic acetylcholine receptor M4” (Vanderbilt University, priority 2016, dated 2019).
# What was measured:
# cynomolgus monkey M4 = cynomolgus monkey M4 (Macaca fascicularis, UniProt G7PQB4); experiment: mAChR M4 cell-based functional assay (calcium flux), cyno M4; conditions: CHO-K1 cells
# [1] = tested on: 68 primary molecular targets; experiment: Eurofins LeadProfilingScreen (binding); conditions: 10 μM (binding); all targets except human adenosine A2a
# bacterial = bacterial cytotoxicity assay; format: cell-based; conditions: 0.6-100 μM
# [2] = solubility (aqueous, faSSIF, SGF); format: physicochemical
# [3] = MDCK-MDR1 permeability and efflux; format: in vitro ADME; conditions: dog, MDCK-MDR1
# Description: (§1) Compound 76 was in several in vitro assays to investigate both metabolism and pharmacokinetics. These assays were performed according to known methods as generally described in the following references: Conde-Ceide et al. ACS Med. Chem. Lett. 2015, 6, 716-720; Morris et al. J. Med. Chem. 2014, 57, 10192-10197; and Bubser et al. ACS Chem. Neurosci. 2014, 5, 920-942.
# MDCK-MDR1 = MDCK-MDR1 permeability and efflux; format: in vitro ADME; conditions: efflux ratio
# Description: as §1
# [4] = fraction unbound in plasma, dog; format: in vitro ADME; conditions: read-out: Dog Fu (plasma)
# Description: as §1
# [5] = fraction unbound in plasma, cyno; format: in vitro ADME; conditions: cynomolgus monkey, read-out: Cyno Fu (plasma)
# Description: as §1
# intrinsic clearance, rat = format: in vitro ADME
# Description: as §1
# intrinsic clearance, dog = format: in vitro ADME
# Description: as §1
# [6] = intrinsic clearance, human; format: in vitro ADME
# Description: as §1
# P450 3A4 = P450 3A4 (Homo sapiens, UniProt P08684); experiment: P450 3A4 inhibition; format: in vitro ADME
# Description: as §1
# P450 2D6 = P450 2D6 (Homo sapiens, UniProt P10635); experiment: P450 2D6 inhibition; format: in vitro ADME
# Description: as §1
# P450 2C9 = P450 2C9 (Homo sapiens, UniProt P11712); experiment: P450 2C9 inhibition; format: in vitro ADME
# Description: as §1
# P450 1A2 = target: T1, P450 1A2 (Homo sapiens, UniProt P05177); experiment: P450 1A2 inhibition; format: in vitro ADME
# T1 sequence (P05177 1-516): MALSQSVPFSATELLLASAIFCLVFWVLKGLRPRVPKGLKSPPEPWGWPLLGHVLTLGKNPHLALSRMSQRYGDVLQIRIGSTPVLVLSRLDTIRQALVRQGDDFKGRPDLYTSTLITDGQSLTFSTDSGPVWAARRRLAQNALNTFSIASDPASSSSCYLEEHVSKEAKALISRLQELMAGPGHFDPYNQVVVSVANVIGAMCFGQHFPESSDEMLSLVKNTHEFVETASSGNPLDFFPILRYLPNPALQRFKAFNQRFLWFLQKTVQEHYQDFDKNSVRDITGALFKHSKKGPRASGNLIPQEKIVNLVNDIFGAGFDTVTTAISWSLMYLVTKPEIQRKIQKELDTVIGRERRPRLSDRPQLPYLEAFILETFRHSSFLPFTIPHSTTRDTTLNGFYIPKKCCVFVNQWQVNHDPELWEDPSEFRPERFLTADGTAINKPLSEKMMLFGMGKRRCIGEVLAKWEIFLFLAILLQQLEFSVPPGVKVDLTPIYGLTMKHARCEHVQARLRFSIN
# Description: as §1
# in vivo [7] = conditions: rat
# in vivo [8] = conditions: dog, plasma
# in vivo [9] = conditions: cynomolgus monkey
# in vivo DMPK, rat = conditions: 3 mg/kg
# in vivo DMPK, dog = conditions: 3 mg/kg
# [10] = tested on: four strains of Salmonella; experiment: Eurofins Ames Test; conditions: 5-100 μM
# rat mAChR M4 = target: T2, rat mAChR M4 (Rattus norvegicus, UniProt P08485); experiment: mAChR M4 cell-based functional assay (calcium flux), rat M4; parameters: Emax: dose or concentration left out as unconfirmed
# T2 sequence (P08485 1-478): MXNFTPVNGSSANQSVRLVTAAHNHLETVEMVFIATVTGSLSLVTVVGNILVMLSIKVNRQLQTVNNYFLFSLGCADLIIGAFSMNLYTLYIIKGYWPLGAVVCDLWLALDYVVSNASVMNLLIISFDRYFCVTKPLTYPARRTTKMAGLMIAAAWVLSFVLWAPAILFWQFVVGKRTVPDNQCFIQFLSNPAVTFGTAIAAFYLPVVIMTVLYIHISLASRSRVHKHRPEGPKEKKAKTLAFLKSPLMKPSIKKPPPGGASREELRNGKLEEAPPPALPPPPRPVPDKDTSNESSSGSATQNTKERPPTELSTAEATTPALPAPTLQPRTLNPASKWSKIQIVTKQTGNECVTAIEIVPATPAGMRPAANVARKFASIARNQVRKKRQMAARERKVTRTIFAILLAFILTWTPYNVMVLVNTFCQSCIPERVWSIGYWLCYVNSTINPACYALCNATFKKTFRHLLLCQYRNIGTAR
# Chain of P450 3A4 (P08684 whole entry): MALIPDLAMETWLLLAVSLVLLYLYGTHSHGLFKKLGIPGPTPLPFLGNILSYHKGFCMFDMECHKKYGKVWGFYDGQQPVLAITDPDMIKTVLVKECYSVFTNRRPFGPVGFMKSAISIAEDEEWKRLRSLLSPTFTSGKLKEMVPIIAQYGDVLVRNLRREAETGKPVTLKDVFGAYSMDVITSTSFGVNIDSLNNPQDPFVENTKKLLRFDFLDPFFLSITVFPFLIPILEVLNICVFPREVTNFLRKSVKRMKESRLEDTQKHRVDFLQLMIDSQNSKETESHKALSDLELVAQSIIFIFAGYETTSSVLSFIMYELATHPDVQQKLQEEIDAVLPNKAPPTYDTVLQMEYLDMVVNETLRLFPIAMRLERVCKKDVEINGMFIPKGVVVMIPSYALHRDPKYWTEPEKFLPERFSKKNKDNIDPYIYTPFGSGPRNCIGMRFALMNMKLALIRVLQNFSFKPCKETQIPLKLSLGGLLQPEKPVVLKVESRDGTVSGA
# Chain of P450 2D6 (P10635 whole entry): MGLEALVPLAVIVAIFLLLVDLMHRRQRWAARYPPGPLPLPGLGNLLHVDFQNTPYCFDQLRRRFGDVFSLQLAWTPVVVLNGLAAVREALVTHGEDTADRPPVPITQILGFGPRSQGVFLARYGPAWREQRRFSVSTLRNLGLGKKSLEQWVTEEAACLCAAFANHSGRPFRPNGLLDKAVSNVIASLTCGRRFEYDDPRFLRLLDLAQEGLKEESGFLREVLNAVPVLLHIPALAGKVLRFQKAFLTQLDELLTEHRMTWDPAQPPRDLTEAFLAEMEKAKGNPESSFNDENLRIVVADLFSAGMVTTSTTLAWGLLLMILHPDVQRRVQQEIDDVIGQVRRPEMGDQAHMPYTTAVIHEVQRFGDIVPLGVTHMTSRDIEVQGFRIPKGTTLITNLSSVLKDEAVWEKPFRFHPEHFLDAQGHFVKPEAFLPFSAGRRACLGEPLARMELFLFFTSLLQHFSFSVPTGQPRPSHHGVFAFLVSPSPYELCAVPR
# Chain of cynomolgus monkey M4 (G7PQB4 1-479): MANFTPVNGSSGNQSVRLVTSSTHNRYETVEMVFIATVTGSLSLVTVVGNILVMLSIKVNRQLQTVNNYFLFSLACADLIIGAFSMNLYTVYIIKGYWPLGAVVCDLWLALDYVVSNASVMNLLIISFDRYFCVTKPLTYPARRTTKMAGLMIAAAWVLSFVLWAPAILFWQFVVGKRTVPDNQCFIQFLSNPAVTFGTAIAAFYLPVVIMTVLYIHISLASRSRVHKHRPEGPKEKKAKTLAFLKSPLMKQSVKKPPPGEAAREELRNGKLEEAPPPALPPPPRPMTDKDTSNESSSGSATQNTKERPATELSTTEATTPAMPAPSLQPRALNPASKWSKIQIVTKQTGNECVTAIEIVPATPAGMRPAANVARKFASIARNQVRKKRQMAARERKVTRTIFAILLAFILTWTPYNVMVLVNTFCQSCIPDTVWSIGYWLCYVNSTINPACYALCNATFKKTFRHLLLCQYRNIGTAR
# Chain of P450 2C9 (P11712 whole entry): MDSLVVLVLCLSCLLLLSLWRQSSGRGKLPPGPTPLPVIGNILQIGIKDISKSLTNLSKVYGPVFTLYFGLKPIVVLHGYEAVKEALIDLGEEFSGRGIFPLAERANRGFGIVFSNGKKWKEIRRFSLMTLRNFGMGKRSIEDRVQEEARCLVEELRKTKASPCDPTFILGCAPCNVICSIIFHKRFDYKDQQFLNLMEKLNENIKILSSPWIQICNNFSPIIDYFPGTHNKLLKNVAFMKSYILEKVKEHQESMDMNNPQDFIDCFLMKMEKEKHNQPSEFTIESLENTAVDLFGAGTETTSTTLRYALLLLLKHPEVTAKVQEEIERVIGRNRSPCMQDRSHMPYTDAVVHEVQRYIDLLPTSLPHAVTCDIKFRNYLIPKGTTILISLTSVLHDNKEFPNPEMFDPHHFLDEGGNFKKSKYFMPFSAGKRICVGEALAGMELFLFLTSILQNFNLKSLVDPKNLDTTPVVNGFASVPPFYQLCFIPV
compound,measurement,setting,value
"Cc1nnc2sc3c(NCc4ccc(C(C)(C)O)cc4)ncnc3c2c1C [Compound 76, 2-[4-[[(3,4-Dimethylpyrimido[4′,5′:4,5]thieno[2,3-c]pyridazin-8-yl)amino]methyl]phenyl]propan-2-ol]",EC50,cynomolgus monkey M4,0.12 µM
same,inhibition of each target in the LeadProfilingScreen,[1],< 50%
same,bacterial cytotoxicity result,bacterial,clean
same,solubility,"[2]; aqueous medium (pH 7.4), pH 7.4, aqueous buffer",166 µM
same,SGF,[2]; solubility in SGF,180 µM
same,faSSIF,[2]; solubility in faSSIF,24 µM
same,Papp A→B,[3],20 ×10⁻⁶ cm/s
same,MDCK-MDR1 ER,MDCK-MDR1,3.1 (Papp A→B:
same,fraction unbound,[4],0.057
same,fraction unbound,[5],0.009
same,CLint scaled,"intrinsic clearance, rat",87 mL/min/kg
same,CLint scaled,"intrinsic clearance, dog",35 mL/min/kg
same,CLint scaled,[6],15 mL/min/kg
same,IC50,P450 3A4,24 µM
same,IC50,P450 2D6,> 30 µM
same,IC50,P450 2C9,16 µM
same,IC50,P450 1A2,> 30 µM
same,Kp,in vivo [7]; brain,0.31
same,Vd,in vivo [7]; plasma,1 L/kg
same,clearance,in vivo [7]; plasma,4.4 mL/min/kg
same,half-life,in vivo [7]; plasma,3 h
same,Vd,in vivo [8],1.4 L/kg
same,clearance,in vivo [8],4.7 mL/min/kg
same,half-life,in vivo [8],4.2 h
same,Kp,in vivo [9]; brain,0.37
same,Kp uu,in vivo [9]; brain,0.62
same,Vd,in vivo [9]; plasma,0.9 L/kg
same,clearance,in vivo [9]; plasma,5.3 mL/min/kg
same,half-life,in vivo [9]; plasma,4.5 h
same,Rat oral F,"in vivo DMPK, rat",>100%
same,Dog oral F,"in vivo DMPK, dog",54%
same,Ames test result,[10],clean
same,Cyno oral F,"in vivo DMPK, cyno; 3 mg/kg",44%
same,Cyno CSF: plasma Kp,"in vivo DMPK, cyno; cynomolgus monkey, in vivo",0.01
same,"Cyno CSF: plasma Kp, u","in vivo DMPK, cyno; cynomolgus monkey, in vivo",1.1
same,Emax,rat mAChR M4,77%
